Assay results as given in patent publication US20140120075A1, “Nanozyme Compositions and Methods of Synthesis and Use Thereof” (Board of Regents of the University of Nebraska, priority 2011, published 2014).

Experiments:
[1] = biological target: Catalase (from bovine liver), DTSSP cross-linked cl-nanozyme with PEG-pLL50, purified (C2p) (Bos taurus, UniProt P00432)
Description: (§1) SOD1 (from bovine erythrocytes), hydrogen peroxide (H2O2), 2,3,5-triphenyltetrazolium chloride (TTC) and copper standards for Inductively Coupled Plasma Mass Spectroscopy (ICP-MS)—TraceCERT®, 1000 mg/L Cu in nitric acid) were from Sigma-Aldrich (St. Louis, Mo.). Catalase (from bovine liver) was from Calbiochem (Gibbstown, N.J.). PEG-pLL50 was from Alamanda Polymers™ (Huntsville, Ala.). […] Cross-linkers 3,3′-dithiobis(sulfosuccinimidylpropionate) (DTSSP) and bis(sulfosuccinimidyl)suberate (BS^3) were from Thermo Fisher Scientific (Rockford, Ill.). NAP™ desalting columns and HiPrep 16/60 Sephacryl S-400 HR column were from GE Healthcare (Piscataway, N.J.). Criterion Tris-HCl gels and Precision Plus Protein™ All Blue Standards were from Bio-Rad (Hercules, Calif.). SYPRO® Ruby protein gel stain and cell culture reagents were purchased from Invitrogen (Carlsbad, Calif.). CellTiter 96® AQueous One Solution Cell Proliferation Assay (MTS) was from Promega (Madison, Wis.). LumiMax Superoxide Anion Detection Kit was from Agilent Technologies, Inc. (Santa Clara, Calif.). All other reagents and supplies were from Fisher Scientific (Pittsburgh, Pa.) unless noted otherwise.
(§2) Enzyme and polymer stock solutions were prepared in 10 mM HEPES (pH 7.4) and 10 mM HEPES-buffered saline (HBS; pH 7.4) for SOD1 and catalase, respectively. Non-cross-linked BICs (Z+/−=2) were prepared as described (Klyachko et al. (2012) Nanomed. Nanotechnol. Biol. Med., 8:119-129). Targeted degree of cross-linking was defined as the molar ratio between cross-linker (DTSSP/BS^3) and pLL amines. Precalculated amount of the respective cross-linker was dissolved in the reaction buffer (HEPES/HBS), quickly added to BICs, and the reaction mixture was briefly vortexed and incubated for 2 hours on ice. Unreacted crosslinker was desalted using NAP™ columns following manufacturer's instructions. Cl-Nanozymes were purified using size exclusion chromatography (SEC) (small/intermediate scale) or centrifugal filtration (large scale). SEC was carried out using an ÄKTA™ Fast Protein Liquid Chromatography (FPLC) (Amersham Biosciences, Piscataway, N.J.) system. DTSSP cl-nanozymes were lyophilized overnight, reconstituted in deionized water (DW), loaded onto a HiPrep 16/60 Sephacryl™ S-400 HR column and eluted using 10 mM HBS (pH 7.4) at a flow rate of 0.5 mL/minute. Prior to each experiment, the column was pre-conditioned with free block copolymer (PEG-pLL50) to minimize non-specific adsorption of the cl-nanozymes (Boeckle et al. (2004) J. Gene Med., 6:1102-1111). Fractions spanning each distinct peak were pooled, concentrated using Amicon® Ultra-4 Centrifugal Filter Units with a molecular weight cutoff (MWCO) of 3000 Da and desalted using NAP™ columns as needed. Protein concentration was determined using Micro BCA™ Protein Assay Kit. In large-scale preparations, clnanozymes were purified by centrifugal filtration using Macrosep™ Centrifugal Device (Pall Life Sciences, Ann Arbor, Mich.) with a MWCO of either 100 kDa (for SOD1) or 1000 kDa (for catalase). Briefly, unreacted cross-linker in cross-linked BICs was desalted using NAP™ columns and eluate was collected in 10 mM HEPES containing 0.3 M NaCl (pH 7.4). Samples were loaded onto the centrifugal device and concentrated to 10% original volume by centrifuging at 4500 RPM. Two rounds of purification were done in 10 mM HEPES buffer containing 0.3 M NaCl (pH 7.4) and the third round was done in 10 mM HEPES buffer (pH 7.4). […]

[2] = biological target: Catalase (from bovine liver), DTSSP cross-linked cl-nanozyme with PEG-pLL50, non-purified (C2) (Bos taurus, UniProt P00432)
Chain of Catalase (from bovine liver), DTSSP cross-linked cl-nanozyme with PEG-pLL50, non-purified (C2) (P00432 whole entry): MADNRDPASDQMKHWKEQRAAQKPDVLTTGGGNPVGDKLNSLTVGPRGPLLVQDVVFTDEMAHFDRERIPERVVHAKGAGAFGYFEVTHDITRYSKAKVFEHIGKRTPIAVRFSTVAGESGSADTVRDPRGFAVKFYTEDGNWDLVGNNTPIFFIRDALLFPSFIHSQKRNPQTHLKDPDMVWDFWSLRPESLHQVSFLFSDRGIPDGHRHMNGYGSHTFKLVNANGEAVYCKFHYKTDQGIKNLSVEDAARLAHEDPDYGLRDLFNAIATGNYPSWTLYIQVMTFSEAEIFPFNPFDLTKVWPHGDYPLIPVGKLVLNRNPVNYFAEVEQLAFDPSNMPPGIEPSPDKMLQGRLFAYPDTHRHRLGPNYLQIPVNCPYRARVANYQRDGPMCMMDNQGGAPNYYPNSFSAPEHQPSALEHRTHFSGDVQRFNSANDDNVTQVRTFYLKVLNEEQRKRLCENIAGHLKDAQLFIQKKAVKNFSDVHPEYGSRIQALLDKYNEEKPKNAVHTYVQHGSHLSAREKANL
Description: as §1, §2

[3] = biological target: Catalase (from bovine liver), native (nC) (Bos taurus, UniProt P00432); conditions: 50 mM phosphate buffer pH 7.4
Chain of Catalase (from bovine liver), native (nC) (P00432 whole entry): as above
Description: as §1

Chain of Catalase (from bovine liver), DTSSP cross-linked cl-nanozyme with PEG-pLL50, purified (C2p) (P00432 whole entry): as above

SMILES: OO [H2O2, hydrogen peroxide]
- Kcat/Km ([1]; 50 mM phosphate buffer pH 7.4, C2p): 7.75e+06 M⁻¹ s⁻¹
- catalytic efficiency (kcat/Km), per cent lower than nC ([1]; purified cl-nanozyme (C2p) compared to native enzyme (nC)): ca. 48%
- catalytic efficiency (kcat/Km), per cent lower than C2 ([1]; purified cl-nanozyme (C2p) compared to non-purified (C2)): ~53%
- Kcat/Km ([2]; 50 mM phosphate buffer pH 7.4, C2): 1.66e+07 M⁻¹ s⁻¹
- increase in Km value ([2]; non-purified cl-nanozyme (C2) compared to native catalase (nC)): ca. 1.8 fold
- Kcat/Km [3]: 1.5e+07 M⁻¹ s⁻¹
